Assays:
Assay type in all cases: cell-based, human
KKU-M213 cells = assay: Annexin V staining (early apoptosis); conditions: 3, 9 and 12 mM (so in the source), 4 h, serum-free, dose dependent
Protocol: (§1) For detection of early apoptosis the Annexin V-FITC kit (Miltenyi Biotech) was used. Cells were seeded and grown on Nunc Lab-Tek II Chamber Slide. After a wash with PBS, cells were incubated with Compound 1 3, 9 and 12 μM in serum-free medium. After […] cells were washed with Binding Buffer (BB) and stained with a solution of Annexin V-FITC antibody in BB for 15′. After 2 washes with BB the cells were fixed with a 4% paraformaldehyde solution and a coverslip was mounted onto the slide using a DAPI Ready Made Solution with Antifade (Merck). Images were acquired using a confocal microscope Nikon Eclipse Ti2 and analysed with image-J.
(§2) Fluorescence microscopy of cells treated with 3, 9 and 12 μM Compound 1 for 4 h and stained with Annexin V-FITC antibody. Annexin V positive cells are early apoptotic cells. Green fluorescence (Annexin V) was quantified using ImageJ software and correlated to DAPI blue fluorescence (nuclei).
(§3) To further explore the activity of Compound 1 on gastrointestinal cancer cells, the effectiveness on cell apoptosis was investigated. Following incubation with Compound 1, cells underwent morphological changes of cell shrinkage and cytoplasmic vacuolization (FIG. 1C). An early event in apoptosis is represented by the loss of plasma membrane asymmetry, resulting in the translocation of phosphatidylserine (PS) from the inner to the outer plasma membrane leaflet. Exposed PS on the cell surface can be used to measure apoptosis by the binding with Annexin V. KKU-M213, HLE and HT-29 cells were incubated with increasing concentrations of Compound 1 (3, 9 and 12 μM). After 4 hours, cells were stained with a FITC-Annexin V antibody and fixed. […] Moreover, a human apoptosis antibody array was used to identify the differential expression of 43 apoptosis-related proteins in cells treated with 12 μM Compound 1 for 24 h compared to untreated cells.

HT-29 cells [1] = assay: Annexin V staining (early apoptosis); conditions: 3, 9 and 12 mM (so in the source), 4 h, serum-free, dose dependent
Protocol: as §1, §2, §3

HLE cells = assay: Annexin V staining (early apoptosis); conditions: 9 and 12 mM (so in the source), 4 h, serum-free; same effect = significantly (p<0.05) induced cell apoptosis
Protocol: as §1, §2, §3

HT-29 cells [2] = assay: Wound healing assay; conditions: 9 and 12 μM, serum-free
Protocol: Cells were seeded in a 12-well plate in 10% FBS medium and grown to reach a 80-90% confluence. Then, a scratch was made on the cell monolayer by using a p200 pipette tip. The plate was washed with sterile PBS to remove the debris and on the outer bottom of the plate were created markings with a tip marker, used as reference points. Each cell line was incubated with medium without FBS and containing increasing concentrations of Compound 1 (1-3-9-12 μM). Images were acquired at 0, 24 and 48 h by using a confocal microscope Nikon Eclipse Ti2 in bright field microscope and analysed with image-J. Image-J software was used to measure the scratched area. Cell migratory ability of wound-healing was assessed using the following formula: [(wound area at 0 h)−(wound area at indicated time)]/(wound area at 0 h).
Images were taken at time 0, 24 h and 48 h and cell migration into the cell-free region (outlined) was quantified.
Tumor progression is characterized by an enhanced cell motility and invasiveness. To expand upon the knowledge of the effects of Compound 1 on HLE, KKU-m213 and HT-29 cells, their migratory activity was assessed when treated with Compound 1 by using both, a wound healing and a transwell migration assay. Cells were seeded in a 12-well plate and, when a confluent monolayer was reached, an artificial gap was generated between the cells using a pipette tip. […]

## C[C@H](NC(=O)CCc1nc2cccnc2n1Cc1ccc(OC(F)(F)F)cc1)c1ccc(Cl)cc1 [Compound 1, N-[(S)-1-(4-chloro-phenyl)-ethyl]-3-[3-(4-trifluoromethoxy-benzyl)-3H-imidazo[4,5-b]pyridin-2-yl]-propionamide]
KKU-M213 cells
  induction of cell apoptosis (Annexin V): significantly (p<0.05) induced cell apoptosis
HT-29 cells [1]
  induction of cell apoptosis (Annexin V): significantly (p<0.05) induced cell apoptosis
HLE cells
  induction of cell apoptosis (Annexin V): the same effect was seen
HT-29 cells [2]
  inhibition of wound closure: significantly (p<0.05) inhibited wound closure

Reference: patent US20260364056A1, “METHODS OF TREATMENT OF NON-PANCREATIC GASTROINTESTINAL CANCERS” (IONCTURA bv, priority 2023, published 2026)
